The values that follow come from ChEMBL document CHEMBL3351624, “A semi-synthetic derivative of artemisinin, artesunate inhibits prostaglandin E2 production in LPS/IFNγ-activated BV2 microglia” (Bioorg Med Chem, 2014).

In series [1] the target is T1, MAP kinase p38 (Mus musculus) (UniProt P47811+O08911+Q9WUI1+Q9Z1B7). The experiment in a line: Inhibition of p38 in mouse BV2 cells assessed as reduction in LPS/IFNgamma-induced MAPKAPK2 phosphorylation at 1 to 4 uM pre-incubated for 30 mins before LPS/IFNgamma challenge for 1 hr by Western blot method. As to conditions: BV-2. In kind it is cell-based. Background: Immunoblotting shows a protein as a band on a membrane.

For series [2], the target named is T2, Inhibitor of nuclear factor kappa-B kinase subunit alpha (Mus musculus) (UniProt Q60680).
T2 sequence (whole entry): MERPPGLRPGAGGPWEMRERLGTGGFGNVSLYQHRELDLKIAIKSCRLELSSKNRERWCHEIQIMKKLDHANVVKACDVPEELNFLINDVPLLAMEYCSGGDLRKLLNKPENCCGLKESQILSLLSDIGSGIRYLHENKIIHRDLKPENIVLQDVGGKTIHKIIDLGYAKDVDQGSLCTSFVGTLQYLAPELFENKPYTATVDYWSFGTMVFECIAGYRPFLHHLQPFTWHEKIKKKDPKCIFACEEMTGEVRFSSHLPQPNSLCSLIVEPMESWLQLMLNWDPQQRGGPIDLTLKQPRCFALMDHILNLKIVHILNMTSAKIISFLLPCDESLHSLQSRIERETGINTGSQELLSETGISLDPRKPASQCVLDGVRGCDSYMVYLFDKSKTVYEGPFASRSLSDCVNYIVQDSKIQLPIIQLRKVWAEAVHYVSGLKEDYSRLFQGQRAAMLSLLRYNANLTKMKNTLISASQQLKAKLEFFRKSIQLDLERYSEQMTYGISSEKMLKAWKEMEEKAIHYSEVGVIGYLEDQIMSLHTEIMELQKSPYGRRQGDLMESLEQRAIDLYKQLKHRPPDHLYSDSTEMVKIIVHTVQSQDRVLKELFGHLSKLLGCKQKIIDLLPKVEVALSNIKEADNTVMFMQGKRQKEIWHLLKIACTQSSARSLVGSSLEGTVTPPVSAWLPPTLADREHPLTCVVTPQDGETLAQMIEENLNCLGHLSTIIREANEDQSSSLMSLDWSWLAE
Put plainly: Inhibition of LPS/IFNgamma-induced IKKalpha phosphorylation in mouse BV2 cells at 1 to 4 uM pre-incubated for 30 mins before LPS/IFNgamma challenge for 1 hr by Western blot method. Type of series: cell-based. As to conditions: BV-2.

Series [3] deals with T3, Inhibitor of nuclear factor kappa-B kinase subunit beta (Mus musculus) (UniProt O88351).
T3 sequence (whole entry): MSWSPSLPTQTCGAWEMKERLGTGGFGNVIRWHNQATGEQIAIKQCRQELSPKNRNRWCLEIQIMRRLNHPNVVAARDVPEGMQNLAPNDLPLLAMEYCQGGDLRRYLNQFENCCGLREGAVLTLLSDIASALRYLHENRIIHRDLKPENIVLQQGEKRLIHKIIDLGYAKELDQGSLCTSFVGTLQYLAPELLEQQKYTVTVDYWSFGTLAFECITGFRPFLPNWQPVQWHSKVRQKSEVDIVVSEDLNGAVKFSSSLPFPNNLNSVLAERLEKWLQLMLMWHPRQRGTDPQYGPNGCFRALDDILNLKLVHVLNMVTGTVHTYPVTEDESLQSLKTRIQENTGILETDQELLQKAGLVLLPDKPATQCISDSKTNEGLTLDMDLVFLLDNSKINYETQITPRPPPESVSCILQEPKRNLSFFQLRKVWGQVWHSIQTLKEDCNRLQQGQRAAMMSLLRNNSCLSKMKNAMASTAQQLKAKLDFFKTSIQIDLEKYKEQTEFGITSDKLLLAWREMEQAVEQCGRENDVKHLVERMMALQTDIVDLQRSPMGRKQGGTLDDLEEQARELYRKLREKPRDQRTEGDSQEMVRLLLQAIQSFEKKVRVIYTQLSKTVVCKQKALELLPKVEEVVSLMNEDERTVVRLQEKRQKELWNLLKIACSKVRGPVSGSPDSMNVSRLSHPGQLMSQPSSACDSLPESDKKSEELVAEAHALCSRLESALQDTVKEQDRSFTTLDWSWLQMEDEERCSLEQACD
The experiment in a line: Inhibition of LPS/IFNgamma-induced IKKbeta phosphorylation in mouse BV2 cells at 1 to 4 uM pre-incubated for 30 mins before LPS/IFNgamma challenge for 1 hr by Western blot method. In kind it is cell-based. The note with it: BV-2.

Series [4] deals with T4, Nuclear factor NF-kappa-B complex (Homo sapiens) (UniProt Q00653+P19838+Q04206). Put plainly: Inhibition of NFkappaB (unknown origin) expressed in HEK293 cells assessed as TNFalpha-induced gene transcription at 4 uM pre-incubated for 30 mins prior to stimulation with TNFalpha for 6 hrs by luciferase reporter gene assay. In kind it is cell-based. More on the design: scale not given: the % may be the effect or the level left.
T4 sequence (P19838 whole entry, looked up): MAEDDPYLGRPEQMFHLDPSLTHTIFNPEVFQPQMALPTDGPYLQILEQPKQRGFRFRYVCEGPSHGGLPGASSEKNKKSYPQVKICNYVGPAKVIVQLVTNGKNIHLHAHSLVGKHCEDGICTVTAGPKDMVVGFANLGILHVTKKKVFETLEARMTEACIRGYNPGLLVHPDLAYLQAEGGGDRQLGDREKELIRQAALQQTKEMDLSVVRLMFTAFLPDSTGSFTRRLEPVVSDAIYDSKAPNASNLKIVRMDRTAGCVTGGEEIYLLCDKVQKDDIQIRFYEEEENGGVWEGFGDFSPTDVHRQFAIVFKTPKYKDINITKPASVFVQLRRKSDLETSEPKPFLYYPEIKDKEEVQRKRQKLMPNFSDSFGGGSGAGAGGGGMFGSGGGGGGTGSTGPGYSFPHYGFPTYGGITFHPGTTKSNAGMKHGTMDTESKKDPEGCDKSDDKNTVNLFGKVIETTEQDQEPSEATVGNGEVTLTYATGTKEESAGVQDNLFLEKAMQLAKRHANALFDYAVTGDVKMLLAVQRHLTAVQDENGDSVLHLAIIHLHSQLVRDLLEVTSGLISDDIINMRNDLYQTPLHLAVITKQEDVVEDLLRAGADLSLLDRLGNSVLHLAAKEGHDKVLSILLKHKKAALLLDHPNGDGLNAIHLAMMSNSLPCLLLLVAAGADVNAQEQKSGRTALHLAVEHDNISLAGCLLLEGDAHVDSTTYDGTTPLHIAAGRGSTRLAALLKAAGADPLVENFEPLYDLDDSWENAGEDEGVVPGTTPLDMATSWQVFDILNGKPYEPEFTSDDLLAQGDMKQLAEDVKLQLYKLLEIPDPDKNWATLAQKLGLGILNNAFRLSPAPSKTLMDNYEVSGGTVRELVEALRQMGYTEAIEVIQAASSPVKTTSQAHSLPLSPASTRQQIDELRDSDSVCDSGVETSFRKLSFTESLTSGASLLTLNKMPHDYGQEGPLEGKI
T4 sequence (Q00653 whole entry, looked up): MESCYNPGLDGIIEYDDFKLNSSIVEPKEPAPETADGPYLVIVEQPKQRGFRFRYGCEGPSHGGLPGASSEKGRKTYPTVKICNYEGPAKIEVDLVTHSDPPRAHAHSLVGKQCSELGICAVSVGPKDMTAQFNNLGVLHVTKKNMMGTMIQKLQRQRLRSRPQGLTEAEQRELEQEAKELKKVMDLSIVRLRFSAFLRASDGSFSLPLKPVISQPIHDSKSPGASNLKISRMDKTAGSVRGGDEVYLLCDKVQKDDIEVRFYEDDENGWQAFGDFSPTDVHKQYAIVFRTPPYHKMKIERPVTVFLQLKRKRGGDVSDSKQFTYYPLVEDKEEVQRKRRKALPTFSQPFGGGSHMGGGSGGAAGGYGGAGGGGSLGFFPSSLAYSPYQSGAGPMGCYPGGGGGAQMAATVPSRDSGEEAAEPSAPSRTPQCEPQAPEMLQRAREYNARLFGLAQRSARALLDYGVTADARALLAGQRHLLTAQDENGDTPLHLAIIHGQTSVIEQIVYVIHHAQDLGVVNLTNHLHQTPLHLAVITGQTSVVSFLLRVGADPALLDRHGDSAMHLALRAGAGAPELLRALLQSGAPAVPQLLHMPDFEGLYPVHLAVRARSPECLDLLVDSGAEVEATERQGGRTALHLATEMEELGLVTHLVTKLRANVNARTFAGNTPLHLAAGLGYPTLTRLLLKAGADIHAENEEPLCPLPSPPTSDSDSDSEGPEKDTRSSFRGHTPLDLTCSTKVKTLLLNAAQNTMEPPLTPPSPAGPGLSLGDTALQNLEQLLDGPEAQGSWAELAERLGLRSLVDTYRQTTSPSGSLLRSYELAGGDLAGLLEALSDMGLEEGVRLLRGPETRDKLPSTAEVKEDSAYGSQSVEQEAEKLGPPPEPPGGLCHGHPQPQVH
T4 sequence (Q04206 whole entry, looked up): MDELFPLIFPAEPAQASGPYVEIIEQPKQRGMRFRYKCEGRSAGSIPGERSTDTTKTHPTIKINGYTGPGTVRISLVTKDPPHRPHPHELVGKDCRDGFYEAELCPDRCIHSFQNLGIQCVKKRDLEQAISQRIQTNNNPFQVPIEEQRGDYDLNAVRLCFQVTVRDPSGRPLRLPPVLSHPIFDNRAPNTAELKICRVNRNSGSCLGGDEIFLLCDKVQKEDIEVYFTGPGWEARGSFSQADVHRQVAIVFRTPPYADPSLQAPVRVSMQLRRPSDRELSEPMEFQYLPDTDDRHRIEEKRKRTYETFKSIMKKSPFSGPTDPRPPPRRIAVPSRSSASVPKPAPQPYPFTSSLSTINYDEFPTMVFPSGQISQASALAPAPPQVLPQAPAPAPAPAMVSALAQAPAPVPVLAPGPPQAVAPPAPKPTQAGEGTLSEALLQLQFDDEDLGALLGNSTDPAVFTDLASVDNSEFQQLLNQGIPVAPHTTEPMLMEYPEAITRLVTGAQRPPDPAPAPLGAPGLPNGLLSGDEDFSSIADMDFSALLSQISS

In series [5] the test system is BV-2. Put plainly: Inhibition of IKK in mouse BV2 cells assessed as reduction in LPS/IFNgamma-induced IkappaB degradation at 0.5 to 4 uM pre-incubated for 30 mins before LPS/IFNgamma challenge for 1 hr by ELISA method. In kind it is cell-based. A general note: ELISA stands for enzyme-linked immunosorbent assay.
In series [6] the test system is BV-2. Put plainly: Antiinflammatory activity in mouse BV2 cells assessed as inhibition of LPS/IFNgamma-induced mPGES1 expression at 0.5 to 4 uM after 24 hrs by Western blot. Type of series: functional, cell-based.
Series [7] relates to BV-2. The experiment in a line: Antiinflammatory activity in mouse BV2 cells assessed as inhibition of LPS/IFNgamma-induced IL6 production at 0.5 to 4 uM pre-incubated before LPS/IFNgamma challenge and measured 24 hrs post LPS/IFNgamma challenge by ELISA method. Type of series: functional, cell-based.
Series [8] in a line: Antiinflammatory activity in mouse BV2 cells assessed as LPS/IFNgamma-induced PGE2 production at 4 uM after 24 hrs by enzyme immunoassay. In kind it is functional, BV-2.
Series [9] has as its system BV-2. The experiment in a line: Antiinflammatory activity in mouse BV2 cells assessed as inhibition of LPS/IFNgamma-induced TNFalpha production at 1 to 4 uM pre-incubated before LPS/IFNgamma challenge and measured 24 hrs post LPS/IFNgamma challenge by ELISA method. Type of series: functional, cell-based.
For series [10], the system named is BV-2. Put plainly: Inhibition of IKK in mouse BV2 cells assessed as reduction in LPS/IFNgamma-induced IkappaB phosphorylation level at 4 uM pre-incubated for 30 mins before LPS/IFNgamma challenge for 1 hr by ELISA method. Type of series: cell-based.
Series [11] concerns BV-2. Put plainly: Inhibition of IKK in mouse BV2 cells assessed as LPS/IFNgamma-induced IkappaB phosphorylation level at 4 uM pre-incubated for 30 mins before LPS/IFNgamma challenge for 1 hr by Western blot method. In kind it is cell-based. The arrangement: scale not given: the % may be the effect or the level left.
Series [12] has as its system BV-2. The experiment in a line: Inhibition of IKK in mouse BV2 cells assessed as LPS/IFNgamma-induced IkappaB phosphorylation level at 0.5 uM pre-incubated for 30 mins before LPS/IFNgamma challenge for 1 hr by Western blot method. In kind it is cell-based. The arrangement: scale not given: the % may be the effect or the level left.
The test system of series [13] is BV-2. The experiment in a line: Inhibition of IKK in mouse BV2 cells assessed as reduction in LPS/IFNgamma-induced IkappaB degradation at 0.5 to 4 uM pre-incubated for 30 mins before LPS/IFNgamma challenge for 1 hr by Western blot method. In kind it is cell-based.
Series [14] concerns the target T1, MAP kinase p38 (Mus musculus). Put plainly: Inhibition of LPS/IFNgamma-induced p38 phosphorylation in mouse BV2 cells at 1 to 4 uM pre-incubated for 30 mins before LPS/IFNgamma challenge for 1 hr by Western blot method. Type of series: cell-based. As to conditions: BV-2.
The nature of series [15]: Toxicity against LPS/IFNgamma-induced mouse BV2 cells assessed as cell viability at 0.5 to 4 uM pre-incubated before LPS/IFNgamma challenge and measured 24 hrs post LPS/IFNgamma challenge by MTT assay. As to conditions: bv-2, 24 h. In kind it is cell-based. For orientation: Tetrazolium dyes change colour on reduction, which living cells bring about.
The test system of series [16] is BV-2. The experiment in a line: Inhibition of IKK in mouse BV2 cells assessed as LPS/IFNgamma-induced IkappaB phosphorylation level at 2 uM pre-incubated for 30 mins before LPS/IFNgamma challenge for 1 hr by Western blot method. In kind it is cell-based. The arrangement: scale not given: the % may be the effect or the level left.
Series [17] deals with BV-2. Put plainly: Antiinflammatory activity in mouse BV2 cells assessed as inhibition of LPS/IFNgamma-induced PGE2 production at 2 uM after 24 hrs by enzyme immunoassay. In kind it is functional, cell-based.
Series [18] deals with BV-2. The experiment in a line: Antiinflammatory activity in mouse BV2 cells assessed as inhibition of LPS/IFNgamma-induced COX2 expression at 0.5 to 4 uM after 24 hrs by Western blot. In kind it is functional, cell-based.
Series [19] can be described thus: Antiinflammatory activity in mouse BV2 cells assessed as LPS/IFNgamma-induced COX2 expression at 4 uM after 24 hrs by Western blot. Type of series: functional, BV-2.
Series [20] addresses T4, Nuclear factor NF-kappa-B complex (Homo sapiens). The experiment in a line: Inhibition of NFkappaB (unknown origin) expressed in HEK293 cells assessed as reduction in TNFalpha-induced gene transcription at 0.5 to 4 uM pre-incubated for 30 mins prior to stimulation with TNFalpha for 6 hrs by luciferase reporter gene assay. Type of series: cell-based.
The subject of series [21] is BV-2. Put plainly: Inhibition of IKK in mouse BV2 cells assessed as LPS/IFNgamma-induced IkappaB phosphorylation level at 1 uM pre-incubated for 30 mins before LPS/IFNgamma challenge for 1 hr by Western blot method. The arrangement: scale not given: the % may be the effect or the level left. Type of series: cell-based.

The structures appear in SMILES notation. Calls of active or inactive are those of the source. No cut-off for these calls is given here.

Turning to `C[C@H]1[C@H](OC(=O)CCC(=O)O)O[C@@H]2O[C@@]3(C)CC[C@H]4[C@H](C)CC[C@@H]1[C@@]24OO3` [ARTESUNATE], the inhibition result (in series [1]; in series [2]; in series [3]; in the series with BV-2 [5]; with BV-2 [6]; with BV-2 [9]) was “Active” in each case. The inhibition result (in the series with BV-2 [10]; in the series with BV-2 [13]; in series [14]; in the series with BV-2 [17]; in the series with BV-2 [18]; in series [20]) was “Active” each time. Further, the Activity was 35.4% in series [4]; 38.8% in series [8]; 44.4% in the series on BV-2 [11]; 68.8% in the series on BV-2 [12]; “Non-toxic” in series [15]; 44.3% in the series on BV-2 [16]. The figures for the Activity (in series [19]; with BV-2 [21]) were 55% and 56.4%, respectively. Moreover, the inhibition entry in the series with BV-2 [7] was “Dose-dependent effect”.
